# Patent US7745402B2, “Method of treating pancreatitis” (Lundbeck Inc., priority 2005, dated 2010)
# d = 2'-deoxy (DNA); r = 2'-OH (RNA)
# Key:
# HO-1 = HO-1 knock-down in vivo by siRNA, immunoblot of peritoneal cells; parameters: species or system mice; conditions: siRNA 2 mg/kg i.p. 3×, hemin on intervening days
# Procedure: (§1) (A,B) Peritoneal cells were isolated from hemin-treated mice that were also injected intraperitoneally on alternate days with saline (−), HO-1 siRNA (construct #1 and #2), or scramble control (Sc) siRNA. The peritoneal cells were then used to examine HO-1 and HO-2 levels by immunoblotting. (C,D) Peritoneal cells were harvested from hemin/construct #2 HO-1 siRNA or hemin/scrambled siRNA injected mice then transferred into naive recipient littermates followed by immediate initiation of CDD feeding. At 2.5 d of CDD feeding, pancreata were collected for histologic scoring. Data for histology score are presented as mean±SD (n=5-6/group), and are 6.4±1.7 (scrambled) and 12.7±4.5 (HO-1 siRNA). (E) Pancreata from panels C,D were double stained using antibodies to F4/80 and HO-1 (scale bar=20 μm).
# HO-1 siRNA and hemin pretreated cell transfer. Mice were injected i.p. every other day (3 total injections) with either saline or with two HO-1 siRNA constructs (2 mg/kg body weight), or with a scrambled siRNA sequence. Hemin was injected in the intervening days (an additional 3 injections). After 7 days, peritoneal cells were harvested and analyzed by immunoblotting using antibodies to HO-1/2. […] The siRNAs were synthesized by Dharmacon Research Inc. (Lafayette, Colo.) and tested previously. Zhang, X., Shan, P., Jiang, D., Noble, P. W., Abraham, N. G., Kappas, A., and Lee, P. J. 2004. […]
# CDD-induced pancreatitis = assay: Transfer of hemin/siRNA pretreated peritoneal cells into CDD-fed mice, histologic scoring; type: in vivo; conditions: recipients of peritoneal cells from hemin + siRNA injected mice; 2.5 d CDD; mean±SD, n=5-6/group
# Procedure: as §1, with “(E) Pancreata from panels C,D were double stained using antibodies to F4/80 and HO-1 (scale bar=20 μm).” left out
# Hemin pretreated peritoneal cell transfer into CDD-fed mice. […] Mice were sacrificed after 2.5 d of CDD feeding, followed by isolation of the pancreata.(for histological and fluorescence staining) and blood. […] The severity of pancreatitis was scored using established histological criteria that assigned individual numerical scores (1=mild, 2=moderate, 3=severe) to edema, inflammation, hemorrhage; and alternate scores for parenchymal necrosis (3=focal, 5=sublobular, and 7=lobular). […]
# HO-1 siRNA and hemin pretreated cell transfer. […] After 7 days, peritoneal cells were harvested and analyzed by immunoblotting using antibodies to HO-1/2. […]
substance,measurement,setting,value
"HO-1 siRNA: HO-1 siRNA construct #2: 5′-GCCACACAGCACUAUGUAAdTdT-3′ (sense), 5′-UUACAUAGUGCUGUGUGGCdTdT-3′ (antisense) (sense GCCACACAGCACUAUGUAATT; antisense UUACAUAGUGCUGUGUGGCTT; chemistry not fully specified)",HO-1 level in peritoneal cells,HO-1,significant inhibition of HO-1
same,histology score,CDD-induced pancreatitis,12.7±4.5
"scrambled: nonspecific siRNA scrambled duplex: 5′-GCGCGCUUUGUAGGAUUCGdTdT-3′ (sense), 5′-CGAAUCCUACAAAGCGCGCdTdT-3′ (antisense) (sense GCGCGCUUUGUAGGAUUCGTT; antisense CGAAUCCUACAAAGCGCGCTT; sugars from the 5' end r19 d2, backbone not given here)",histology score,CDD-induced pancreatitis,6.4±1.7
